Results: ChEMBL document CHEMBL1132062, “A new class of potent RAR antagonists: dihydroanthracenyl, benzochromenyl and benzothiochromenyl retinoids” (Bioorg Med Chem Lett, 1999)
pIC50, pKd: −log10 of the molar value.

Experiments:
Mus musculus [1] = species: Mus musculus; assay: Compound was tested for cutaneous toxicity score in mice at a dose of 3.6 nmol/25 g of TTNPB and 28.8 nmol/25 g of the compound; type: functional
Mus musculus [2] = species: Mus musculus; assay: Compound was tested for flaking score in mice at a dose of 3.6 nmol/25 g of TTNPB and 7.2 nmol/25 g of the compound; type: functional
Mus musculus [3] = species: Mus musculus; assay: Compound was tested for cutaneous toxicity score in mice at a dose of 3.6 nmol/25 g of TTNPB and 7.2 nmol/25 g of the compound; type: functional
Mus musculus [4] = species: Mus musculus; assay: Compound was tested for flaking score in mice at a dose of 3.6 nmol/25 g of TTNPB and 28.8 nmol/25 g of the compound; type: functional
Mus musculus [5] = species: Mus musculus; assay: Compound was tested for abrasion score in mice at a dose of 3.6 nmol/25 g of TTNPB and 28.8 nmol/25 g of the compound; type: functional
Mus musculus [6] = species: Mus musculus; assay: Compound was tested for its effect on body weight gain in mice at a dose of 3.6 nmol/25 g of TTNPB and 7.2 nmol/25 g of the compound; type: functional
Mus musculus [7] = species: Mus musculus; assay: Compound was tested for its effect on body weight gain in mice at a dose of 3.6 nmol/25 g of TTNPB and 28.8 nmol/25 g of the compound; type: functional
Mus musculus [8] = species: Mus musculus; assay: Compound was tested for abrasion score in mice at a dose of 3.6 nmol/25 g of TTNPB and 7.2 nmol/25 g of the compound; type: functional
[9] = target: T1, Retinoic acid receptor alpha (Homo sapiens) (UniProt P10276); assay: Relative inhibition of TTNPB activity vs background activity (100% inhibition) against RAR alpha; type: functional; settings: concentration not given here
T1 sequence (whole entry): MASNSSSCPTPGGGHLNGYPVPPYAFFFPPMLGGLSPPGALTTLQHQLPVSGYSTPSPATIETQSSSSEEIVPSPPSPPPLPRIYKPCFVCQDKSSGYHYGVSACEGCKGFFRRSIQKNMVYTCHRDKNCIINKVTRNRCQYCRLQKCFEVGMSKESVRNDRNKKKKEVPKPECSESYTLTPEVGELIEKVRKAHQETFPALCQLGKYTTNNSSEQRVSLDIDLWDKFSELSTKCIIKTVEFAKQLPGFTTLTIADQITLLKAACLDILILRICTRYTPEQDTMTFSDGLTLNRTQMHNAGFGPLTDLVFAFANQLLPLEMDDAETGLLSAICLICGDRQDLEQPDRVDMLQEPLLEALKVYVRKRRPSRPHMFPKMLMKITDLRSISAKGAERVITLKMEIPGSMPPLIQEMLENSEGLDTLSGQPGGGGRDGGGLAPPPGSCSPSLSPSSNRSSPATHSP

[10] = target: T2, Retinoic acid receptor beta (Homo sapiens) (UniProt P10826); assay: Relative inhibition of TTNPB activity vs background activity (100% inhibition) against RAR beta; type: functional; settings: concentration not given here
T2 sequence (whole entry): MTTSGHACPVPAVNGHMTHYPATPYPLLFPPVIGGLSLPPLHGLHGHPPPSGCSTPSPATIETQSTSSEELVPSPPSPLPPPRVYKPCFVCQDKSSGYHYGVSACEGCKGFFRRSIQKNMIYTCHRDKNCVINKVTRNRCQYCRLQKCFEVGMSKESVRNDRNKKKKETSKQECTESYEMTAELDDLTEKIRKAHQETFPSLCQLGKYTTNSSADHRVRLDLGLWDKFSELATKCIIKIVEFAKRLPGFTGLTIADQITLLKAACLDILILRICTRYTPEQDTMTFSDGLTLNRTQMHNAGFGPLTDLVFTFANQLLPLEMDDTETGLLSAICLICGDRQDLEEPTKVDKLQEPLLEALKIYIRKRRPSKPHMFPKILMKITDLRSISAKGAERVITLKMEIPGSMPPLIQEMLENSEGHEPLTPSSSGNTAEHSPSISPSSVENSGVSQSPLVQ

[11] = target: T3, Retinoic acid receptor gamma (Homo sapiens) (UniProt P13631); assay: Relative inhibition of TTNPB activity vs background activity(100% inhibition) against RAR gamma; type: functional; settings: concentration not given here
T3 sequence (whole entry): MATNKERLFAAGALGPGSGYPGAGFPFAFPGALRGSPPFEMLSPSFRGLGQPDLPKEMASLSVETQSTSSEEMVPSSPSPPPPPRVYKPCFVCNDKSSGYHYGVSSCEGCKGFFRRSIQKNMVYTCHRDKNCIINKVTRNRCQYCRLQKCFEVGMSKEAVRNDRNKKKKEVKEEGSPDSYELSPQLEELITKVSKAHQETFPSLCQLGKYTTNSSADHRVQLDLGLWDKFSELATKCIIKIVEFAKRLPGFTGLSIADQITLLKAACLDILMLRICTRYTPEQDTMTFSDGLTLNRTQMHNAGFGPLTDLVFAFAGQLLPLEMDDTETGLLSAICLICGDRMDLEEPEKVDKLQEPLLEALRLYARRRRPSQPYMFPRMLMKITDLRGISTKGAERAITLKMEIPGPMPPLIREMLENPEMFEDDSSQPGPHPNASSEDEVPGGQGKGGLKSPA

Mus musculus [12] = species: Mus musculus; assay: Compound was tested for flaking score in mice at a dose of 3.6 nmol/25 g; type: functional
Mus musculus [13] = species: Mus musculus; assay: Compound was tested for cutaneous toxicity score in mice at a dose of 3.6 nmol/25 g; type: functional
Mus musculus [14] = species: Mus musculus; assay: Compound was tested for abrasion score in mice at a dose of 3.6 nmol/25 g; type: functional
Mus musculus [15] = species: Mus musculus; assay: Compound was tested for its effect on body weight gain in mice at a dose of 3.6 nmol/25 g; type: functional
[16] = target: T4, Retinoic acid receptor alpha (Homo sapiens, UniProt P10276); assay: Binding affinity of [3H]- RA to baculovirus expressed human RAR alpha
T4 sequence (P10276 whole entry): T1 sequence (whole entry)

[17] = target: T5, Retinoic acid receptor gamma (Homo sapiens, UniProt P13631); assay: Binding affinity of [3H]- RA to baculovirus expressed human Retinoic acid receptor gamma
T5 sequence (P13631 whole entry): T3 sequence (whole entry)

[18] = target: T6, Retinoic acid receptor beta (Homo sapiens, UniProt P10826); assay: Antagonistic activity against RAR beta in transcriptional activation assay with 10 nM TTNPB; type: functional
T6 sequence (P10826 whole entry): T2 sequence (whole entry)

[19] = target: T4, Retinoic acid receptor alpha; assay: Antagonistic activity against RAR alpha in transcriptional activation assay with 32 nM TTNPB; type: functional
[20] = target: T6, Retinoic acid receptor beta; assay: Binding affinity of [3H]- RA to baculovirus expressed human Retinoic acid receptor beta
[21] = target: T5, Retinoic acid receptor gamma; assay: Antagonistic activity against RAR gamma in transcriptional activation assay with 3.2 nM TTNPB; type: functional

## C/C(=C\c1ccc(C(=O)O)cc1)c1ccc2c(c1)C(C)(C)CCC2(C)C.Cc1ccc(C2=CC(C)(C)Oc3cc4ccc(-c5ccc(C(=O)O)cc5)cc4cc32)s1
Mus musculus [1]
  Cutaneous toxicology score: 3
Mus musculus [2]
  Flaking score: 2
Mus musculus [3]
  Cutaneous toxicology score: 4.6
Mus musculus [4]
  Flaking score: 2
Mus musculus [5]
  Abrasion score: 1
Mus musculus [6]
  Gain: 6%
Mus musculus [7]
  Gain: 1%
Mus musculus [8]
  Abrasion score: 3

## Cc1ccc(C2=CC(C)(C)Sc3cc4ccc(-c5ccc(C(=O)O)cc5)cc4cc32)cc1 [listing 1 of 2 here]
[9]
  inhibition: 97%
[10]
  inhibition: 98%
[11]
  inhibition: 98%

## C/C(=C\c1ccc(C(=O)O)cc1)c1ccc2c(c1)C(C)(C)CCC2(C)C.Cc1ccc(C2=CC(C)(C)Oc3cc4ccc(-c5ccc(C(=O)O)cc5)cc4cc32)cc1
Mus musculus [1]
  Cutaneous toxicology score: 1
Mus musculus [2]
  Flaking score: 1
Mus musculus [3]
  Cutaneous toxicology score: 1.9
Mus musculus [4]
  Flaking score: 1
Mus musculus [5]
  Abrasion score: 0
Mus musculus [6]
  Gain: 3%
Mus musculus [7]
  Gain: 2%
Mus musculus [8]
  Abrasion score: 1

## C/C(=C\c1ccc(C(=O)O)cc1)c1ccc2c(c1)C(C)(C)CCC2(C)C
Mus musculus [12]
  Flaking score: 3
Mus musculus [13]
  Cutaneous toxicology score: 11
Mus musculus [14]
  Abrasion score: 2
Mus musculus [15]
  Gain: 6%

## Cc1ccc(C2=CCC(C)(C)c3cc4ccc(-c5ccc(C(=O)O)cc5)cc4cc32)cc1 [listing 1 of 2 here]
[16]
  pKd: 7.89
[17]
  pKd: 8.15
[18]
  pIC50: 7.66
[19]
  pIC50: 7.70
[20]
  pKd: 8.40
[21]
  pIC50: 8.70

## C/C(=C\c1ccc(C(=O)O)cc1)c1ccc2c(c1)C(C)(C)CCC2(C)C.Cc1ccc(C2=CC(C)(C)Sc3cc4ccc(-c5ccc(C(=O)O)cc5)cc4cc32)cc1
Mus musculus [1]
  Cutaneous toxicology score: 0.7
Mus musculus [2]
  Flaking score: 1
Mus musculus [3]
  Cutaneous toxicology score: 1.4
Mus musculus [4]
  Flaking score: 1
Mus musculus [5]
  Abrasion score: 0
Mus musculus [6]
  Gain: 5%
Mus musculus [7]
  Gain: 0%
Mus musculus [8]
  Abrasion score: 0

## Cc1ccc(C2=CC(C)(C)Sc3cc4ccc(-c5ccc(C(=O)O)cc5)cc4cc32)cc1 [listing 2 of 2 here]
[16]
  pKd: 8.26
[17]
  pKd: 8.30
[18]
  pIC50: 8.70
[19]
  pIC50: 8.82
[20]
  pKd: 8.22
[21]
  pIC50: 9.30

## Cc1ccc(C2=CC(C)(C)Sc3cc4ccc(-c5ccc(C(=O)O)cc5)cc4cc32)s1
[16]
  pKd: 7.89
[17]
  pKd: 7.74
[20]
  pKd: 7.89

## Cc1ccc(C2=CC(C)(C)Oc3cc4ccc(-c5ccc(C(=O)O)cc5)cc4cc32)s1
[9]
  inhibition: 97%
[10]
  inhibition: 98%
[18]
  pIC50: 8.19
[19]
  pIC50: 8.19
[11]
  inhibition: 97%
[21]
  pIC50: 8.40

## Cc1ccc(C2=CCC(C)(C)c3cc4ccc(-c5ccc(C(=O)O)cc5)cc4cc32)s1
[16]
  pKd: 7.82
[9]
  inhibition: 95%
[17]
  pKd: 7.96
[10]
  inhibition: 83%
[18]
  pIC50: 7.82
[19]
  pIC50: 7.70
[11]
  inhibition: 96%
[20]
  pKd: 8.22
[21]
  pIC50: 8.70

## Cc1ccc(C2=CC(C)(C)Oc3cc4ccc(-c5ccc(C(=O)O)cc5)cc4cc32)cc1 [listing 1 of 2 here]
[16]
  pKd: 7.85
[17]
  pKd: 7.85
[18]
  pIC50: 8.12
[19]
  pIC50: 8.26
[20]
  pKd: 8.15
[21]
  pIC50: 8.70

## C/C(=C\c1ccc(C(=O)O)cc1)c1ccc2c(c1)C(C)(C)CCC2(C)C.Cc1ccc(C2=CCC(C)(C)c3cc4ccc(-c5ccc(C(=O)O)cc5)cc4cc32)cc1
Mus musculus [1]
  Cutaneous toxicology score: 1.1
Mus musculus [2]
  Flaking score: 1
Mus musculus [3]
  Cutaneous toxicology score: 2
Mus musculus [4]
  Flaking score: 1
Mus musculus [5]
  Abrasion score: 0
Mus musculus [6]
  Gain: 2%
Mus musculus [7]
  Gain: 5%
Mus musculus [8]
  Abrasion score: 1

## Cc1ccc(C2=CCC(C)(C)c3cc4ccc(-c5ccc(C(=O)O)cc5)cc4cc32)cc1 [listing 2 of 2 here]
[9]
  inhibition: 97%
[10]
  inhibition: 97%
[11]
  inhibition: 98%

## Cc1ccc(C2=CC(C)(C)Oc3cc4ccc(-c5ccc(C(=O)O)cc5)cc4cc32)cc1 [listing 2 of 2 here]
[9]
  inhibition: 97%
[10]
  inhibition: 98%
[11]
  inhibition: 98%
